Laboratory results from ChEMBL document CHEMBL5046305, “A Chemical Strategy toward Novel Brain-Penetrant EZH2 Inhibitors” (ACS Med Chem Lett, 2022).

Key:
[1] = Apparent permeability across apical to basolateral side in MDCK-MDR1 cells at 1 to 10 uM measured after 1 hrs by LC/MS/MS analysis; assay type: ADME, cell-based, Canis lupus familiaris; settings: dog, dose 1-10 µM
KARPAS-422 = assay: Antiproliferative activity against human KARPAS-422 cells assessed as cell growth inhibition incubated for 72 hrs followed by compound dilution in growth medium and measured after 96 hrs by Alamar blue assay; assay type: functional, cell-based
[2] = Ratio of unbound drug concentration in brain to blood in Sprague-Dawley rat at 1 mg/kg, iv measured after 15 mins by LC/MS/MS analysis; assay type: ADME, organism-based; settings: read-out: K(p,uu,brain)
[3] = molecular target: T1, Histone-lysine N-methyltransferase EZH2 (Homo sapiens, UniProt Q15910); assay: Inhibition of EZH2 (unknown origin) using 3H-SAM as substrate incubated for 1 hour by filter binding method
[4] = molecular target: T1, Histone-lysine N-methyltransferase EZH2; assay: Inhibition of EZH2 in HEK293T cells assessed as H3K27me3 levels incubated for 48 hrs by flow cytometry; assay type: cell-based
[5] = Metabolic stability in human liver microsomes at 1 uM in presence of NADPH generating system by LC/MS/MS analysis; assay type: ADME, Microsome; settings: read-out: Stability
[6] = Metabolic stability in mouse liver microsomes at 1 uM in presence of NADPH generating system by LC/MS/MS analysis; assay type: ADME, Microsome; settings: read-out: Stability
MDR1 = assay: Efflux ratio of apparent permeability across basolateral to apical side over apical to basolateral side in MDCK-MDR1 cells at 1 to 10 uM measured after 1 hrs by LC/MS/MS analysis; assay type: ADME, cell-based, Canis lupus familiaris; settings: dog, dose 1-10 µM

T1 sequence (Q15910 whole entry): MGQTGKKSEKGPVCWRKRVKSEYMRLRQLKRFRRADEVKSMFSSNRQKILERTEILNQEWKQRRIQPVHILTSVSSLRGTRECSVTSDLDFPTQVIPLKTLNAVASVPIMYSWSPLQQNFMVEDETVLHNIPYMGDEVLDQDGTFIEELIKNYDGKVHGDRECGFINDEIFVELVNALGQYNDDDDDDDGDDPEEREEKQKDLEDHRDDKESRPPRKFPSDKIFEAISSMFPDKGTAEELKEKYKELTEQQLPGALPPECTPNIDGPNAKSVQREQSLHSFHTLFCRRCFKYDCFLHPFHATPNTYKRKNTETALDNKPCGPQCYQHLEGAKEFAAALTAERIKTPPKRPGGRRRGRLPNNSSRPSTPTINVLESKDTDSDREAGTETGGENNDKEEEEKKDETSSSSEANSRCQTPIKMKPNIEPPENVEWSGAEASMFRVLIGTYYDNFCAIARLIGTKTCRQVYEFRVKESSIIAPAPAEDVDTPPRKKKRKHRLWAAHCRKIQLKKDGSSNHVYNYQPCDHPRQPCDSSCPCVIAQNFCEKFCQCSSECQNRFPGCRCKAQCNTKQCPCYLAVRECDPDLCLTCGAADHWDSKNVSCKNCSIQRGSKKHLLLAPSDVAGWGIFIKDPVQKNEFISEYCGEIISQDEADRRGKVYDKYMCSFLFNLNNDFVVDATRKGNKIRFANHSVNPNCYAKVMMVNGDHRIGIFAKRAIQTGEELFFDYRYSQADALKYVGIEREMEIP

Structure (SMILES) | Papp A→B at 1 h, up to 10 µM [1] [×10⁻⁶ cm/s] | IC50 (KARPAS-422) [nM] | Kp uu at 0.25 h [2] | IC50 [3] [nM] | IC50 [4] [nM] | microsomal CLint at 1 µM [5] [µL/min/mg] | microsomal CLint at 1 µM [6] [µL/min/mg] | efflux ratio at 1 h, up to 10 µM (MDR1)
COc1cc(C)[nH]c(=O)c1CN1CCN(C)c2c(Cl)cc(-c3ccc(Cl)cc3F)c(Cl)c2C1=O | – | – | – | 72.1 | – | 97 | 297 | –
COc1cc(C)[nH]c(=O)c1CN1CCN(C)c2c(Cl)cc(OC(C)C)c(Cl)c2C1=O | – | – | – | 33.4 | – | 29 | > 768 | –
COc1cc(C)n(C)c(=O)c1CN1CCN(C)c2c(Cl)cc(-c3c(C)noc3C)c(Cl)c2C1=O | – | – | – | 541 | – | – | – | –
Cc1cc(C)n(C)c(=O)c1CN1CCc2c(Cl)cc(-c3c(C)noc3C)c(Cl)c2C1=O | 10.5 | 4680 | 0.29 | – | – | 449 | > 768 | –
COc1cc(C)[nH]c(=O)c1CN1CCN(C)c2ccc(-c3c(C)noc3C)c(Cl)c2C1=O | < 0.1 | – | – | 2.9 | – | 9 | – | –
COc1cc(C)[nH]c(=O)c1CN1CCN(C)c2c(Cl)cc(-c3ccc(CN4CCOCC4)cc3)c(Cl)c2C1=O | – | – | – | 220 | – | 41 | 41 | –
CSc1cc(C)n(C)c(=O)c1CN1CCN(C)c2c(Cl)cc(-c3c(C)noc3C)c(Cl)c2C1=O | 0.2 | 10400 | – | 11.4 | – | – | – | 110
Cc1noc(C)c1-c1cc(Cl)c2c(c1Cl)C(=O)N(Cc1c(C3CC3)cc(C)n(C)c1=O)CC2 | 5.2 | – | – | 302 | – | 490 | > 768 | 1.5
COc1cc(C)n(C)c(=O)c1CN1CCc2c(Cl)cc(-c3c(C)noc3C)c(Cl)c2C1=O | 1 | 2950 | – | 11.6 | – | 117 | 656 | 23
CCN1CCN(Cc2c(OC)cc(C)[nH]c2=O)C(=O)c2c(Cl)c(-c3c(C)noc3C)cc(Cl)c21 | – | – | – | 33.4 | – | – | – | –
CSc1cc(C)n(C)c(=O)c1CN1CCNc2c(Cl)cc(-c3c(C)noc3C)c(Cl)c2C1=O | 0.2 | 1320 | – | 2.1 | – | – | – | 220
COc1cc(C)[nH]c(=O)c1CN1CCN(C)c2c(Cl)cc(C(O)C3CCOCC3)c(Cl)c2C1=O (stereo not given) | – | – | – | 9.4 | – | 34 | 91 | –
CCc1cc(C)n(C)c(=O)c1CN1CCc2c(Cl)cc(-c3c(C)noc3C)c(Cl)c2C1=O | 11 | – | – | 82 | – | > 768 | > 768 | 0.72
COc1cc(C)[nH]c(=O)c1CN1CCN(C)c2c(Cl)cc(-c3ccc(N4CCOCC4)cc3)c(Cl)c2C1=O | – | – | – | 64.8 | – | 7 | 8 | –
Cc1noc(C)c1-c1cc(Cl)c2c(c1Cl)C(=O)N(Cc1c(C(F)(F)F)cc(C)n(C)c1=O)CC2 | 4.9 | – | – | > 1000 | – | 287 | 592 | 2.4

The next lines start with the values.

Papp A→B at 1 h, up to 10 µM [1] [×10⁻⁶ cm/s] | IC50 (KARPAS-422) [nM] | Kp uu at 0.25 h [2] | IC50 [3] [nM] | IC50 [4] [nM] | microsomal CLint at 1 µM [5] [µL/min/mg] | microsomal CLint at 1 µM [6] [µL/min/mg] | efflux ratio at 1 h, up to 10 µM (MDR1) | Structure (SMILES)
3.7 | 122 | < 0.003 | 1 | 16 | 210 | 253 | 4.8 | Cc1cc(C)c(CN2CCc3c(Cl)cc(-c4c(C)noc4C)c(Cl)c3C2=O)c(=O)[nH]1
< 0.1 | – | – | 1.8 | – | – | – | > 170 | CCc1cc(C)[nH]c(=O)c1CN1CCN(C)c2c(Cl)cc(-c3c(C)noc3C)c(Cl)c2C1=O
– | – | – | 1.9 | – | 181 | > 768 | – | CCN(c1cc(Cl)c2c(c1Cl)C(=O)N(Cc1c(OC)cc(C)[nH]c1=O)CCN2C)C1CCOCC1
< 0.1 | 245 | – | 0.87 | 208 | 80 | 112 | > 49 | COc1cc(C)[nH]c(=O)c1CN1CCN(C)c2c(Cl)cc(-c3c(C)noc3C)c(Cl)c2C1=O
< 0.1 | 125 | – | 0.9 | – | – | – | > 99 | CSc1cc(C)[nH]c(=O)c1CN1CCN(C)c2c(Cl)cc(-c3c(C)noc3C)c(Cl)c2C1=O
< 0.1 | 65 | – | 0.35 | 17 | 79 | 123 | > 51 | COc1cc(C)[nH]c(=O)c1CN1CCNc2c(Cl)cc(-c3c(C)noc3C)c(Cl)c2C1=O
0.3 | 632 | – | 1.3 | – | 235 | 796 | 110 | CSc1cc(C)n(C)c(=O)c1CN1CCc2c(Cl)cc(-c3c(C)noc3C)c(Cl)c2C1=O
– | – | – | 2 | – | 206 | 562 | – | COc1cc(C)[nH]c(=O)c1CN1CCN(C)c2c(Cl)cc(C(C)C3CCOCC3)c(Cl)c2C1=O (stereo not given)
